# Assay results taken from US20050089470A1, “Labeled peptides for lectin-like oxidized low-density lipoprotein receptor (LOX-1)” (priority 2003, published 2005).
# Ends that are not written are not given here. Fl = fluorescein
# System: human coronary artery endothelial cells (HCAE)
# Assay: Binding of fluorescein-labeled ligands to HCAE cells, imaged by laser confocal fluorescence microscopy
# Assay type: cell-based
# Conditions: HCAE cells known to express LOX-1; about 10 μL of 1 mg/ml labeled ligand, incubated 1 hour, washed three times
# Method: Images in the assay may be acquired using a laser confocal microscope or an Imager. For example, images of peptides bound to cells can be obtained using a laser confocal microscope as follows: HCAE cells can be grown on high quality borosilicate 8-chambered glass slides (Electron Microscopy Sciences, Fort Washington, Pa.). Then, about 10 μL of 1 mg/ml of an aqueous solution of a labeled peptide can be added to the cells and incubated for 1 hour. Subsequently, the cells preferably are washed with HBSS buffer three times. The cells then can be fixed with 4% formaldehyde solution over 10 minutes. After a final wash with buffer, the slide is imaged. Images preferably are acquired using an OLYMPUS laser scanning confocal microscope, model Fluoview 300, using Ar-ion laser (selecting 488 nm line) and a 510-nm long-pass filter. Images can be acquired using two channels: reflected light and fluorescent mode channel, or an overlay of both channels.
# The experimental conditions for imaging the peptide-labeled HCAECs are described previously.
# The image was obtained using a laser confocal microscope as follows: HCAE cells were laid on and grown in wells on a standard commercial 96-well plate (Becton-Dickenson, Franklin Lakes, N.J.). Then, about 10 μL of 1 mg/ml labeled antibody aqueous solution was added to the cells and incubated for 1 hour. […]
row,Substance,binding / localization on HCAECs (fluorescent confocal image)
1,Fl-KGKG-QPLFTPQ (Fl-KGKGQPLFTPQ) [comparative peptide],weaker binding affinity
2,Fl-KKGG-FQTPPQL (Fl-KKGGFQTPPQL),localized on the cells
